Results taken from patent US20020006420A1, “USE OF A 2-AMINO-ALKANE POLYOL AS AGENT FOR TREATING SKIN AGEING SIGNS” (priority 1997, published 2002).

How the values were obtained:
Assay type in all cases: cell-based
[1] = system: HaCat cells; experiment: Proliferative effect on keratinocytes in culture (cell counting, Coulter Counter); conditions: for increase in the number of cells relative to the control: counting 5 days after addition
Experimental: HaCat cells (Boukamp et al., J. Cell Biol. Vol. 106, March 1988, 761-771) are cultured in DMEM medium (company Gibco) containing amino acids (mixture of nonessential amino acids) at the concentration of 0.1 mM, penicillin and streptomycin at the respective concentrations of 50 International Units per milliliter and 50 μg/ml, glutamine at the concentration of 2 mM, sodium pyruvate at the concentration of 1 mM and foetal calf serum at 10%. These cells were inoculated at the density of 10,000 cells per well into the 24 wells of multiwell-type plates (Costar, France).
24 hours after inoculation, the cells are brought into contact with various compounds tested in a KBM medium (company Clonetics) containing 0.15 mM of calcium ion, insulin at 5 μg/ml, hydrocortisone at 0.5 μg/ml and lipid-free bovine serum albumin at 1 μg/ml.
Cell counting is carried out 5 days after the addition of the various ceramides using a cell counter of the Coulter Counter type.
The various compounds are tested at 0.5 nM, 5 nM, 50 nM and 500 nM.
The results, expressed as a percentage, represent the increase in the number of cells relative to the control, that is to say relative to a culture carried out under the same conditions in the absence of sphinganine.

[2] = system: HaCat cells; experiment: Effect on cell viability (mitochondrial respiration, XTT kit); conditions: 50 nM
Experimental: (§1) HaCat cells are cultured as above.
(§2) They are then inoculated at the density of 20,000 cells per well into the 24 wells of multiwell-type plates (Costar, France).
(§3) 24 hours after inoculation, the cells are brought into contact with various compounds tested in a KBM medium (company Clonetics) containing insulin at 5 μg/ml and hydrocortisone at 0.5 μg/ml.
(§4) The cell viability is evaluated 48 hours later by the measurement of mitochondrial respiration. This is carried out with the aid of an XTT kit sold by the company Boehringer and according to the supplier's instructions.
Compounds A and B of the preceding example were tested at the concentration of 50 nM, as well as a derivative based on sphingenine: N-palmitoylsphingenine from Sigma (C16H).
The results, expressed as a percentage, represent the increase in the number of cells relative to the control, that is to say relative to a culture carried out under the same conditions in the absence of alkanediol compounds.

[3] = system: HaCat cells; experiment: Effect on the cell cycle (BrdU incorporation, S phase); conditions: 50 nM
Experimental: as §1, §2
24 hours after inoculation, the cells are brought into contact with various compounds tested in a KBM medium (company Clonetics) containing insulin at 5 μg/ml and hydrocortisone at 0.5 μg/ml, and 5-bromo-2′-deoxyuridine (BrdU) at 1 μM.
[…] This is carried out with the aid of a “BrdU fast” kit sold by the company Boehringer and according to the supplier's instructions.
Compounds A and B of the preceding example were tested at the concentration of 50 nM.
The results, expressed as a percentage, represent the increase in the number of cells which entered the S phase relative to the control, that is to say relative to a culture carried out under the same conditions in the absence of alkanediol compounds.

[4] = system: HaCat cells; experiment: Cell viability in the presence of N-acetylsphingenine (XTT kit); conditions: 10 μM
Experimental: HaCat cells are cultured as in Example 2.
as §3
The cells are cultured in the presence of the 2-amino-1,3-octadecanediol to be tested until the cell viability is evaluated.
The N-acteylsphingenine at the concentration of 10 μM is added to the culture medium over 2 hours at the beginning of the experiment.
as §4
The experiment was carried out with the following compounds at the concentration of 50 nM:
in comparison with the culture medium without alkanediol and without N-acetylsphingenine (A), and with a medium containing only N-acetylsphingenine (B).
The results, expressed as a percentage, represent the number of cells relative to the control (A), that is to say relative to a culture carried out under the same conditions in the absence of alkanediol compounds and of N-acetysphingenine.

Row | Compound | proliferative activity on keratinocytes in culture (in words) [1] | increase in the number of cells relative to the control ([1]; 0.5 nM) | increase in the number of cells relative to the control ([1]; 5 nM) | increase in the number of cells relative to the control ([1]; 50 nM) | increase in the number of cells relative to the control ([1]; 500 nM) | effect on viability of keratinocytes in culture (in words) [2] | cell viability: increase in the number of cells relative to the control ([2]; XTT 48 hours later) | effect on number of keratinocytes which entered the S phase (in words) [3] | increase in the number of cells which entered the S phase relative to the control ([3]; 72 hours) | increase in the number of cells which entered the S phase relative to the control ([3]; 96 hours) | effect of N-acetylsphingenine on cell viability (in words) [4]
1 | CCCCCCCCCCCCCCCC(O)C(N)CO (single isomer, unassigned) [A, 2-amino-1,3-octadecanediol] | proliferative activity | 7% | 15% | 17% | 30% | increase the viability | +17% | increase the number of keratinocytes which entered the S phase | 36% | 41% | 
2 | CCCCCCCCCCCCC/C=C/[C@@H](O)[C@H](CO)NC(=O)CCCCCCCCCCCCCCC [Compound C16H, N-palmitoylsphingenine, reference compound] |  |  |  |  |  | cytotoxic effect |  |  |  |  | 
3 | N-acetylsphingenine [B] |  |  |  |  |  |  |  |  |  |  | decrease in cell viability
